For data set [1], the system named is salmonella typhimurium TA97, TA98, TA100, TA1535, and TA102. The settings on record: with or without S9; for mutagenicity on TA102 strain: doses of less than and equal to 150 μg/plate; for mutagenicity on TA97 strain: doses of less than and equal to 500 μg/plate; for mutagenicity on TA98, TA100 and TA1535 strains: doses of less than and equal to 1500 μg/plate.
Experimental: Direct mutagen 1: Dexon (Dima Technology Inc.; Batch No.: 456-2D)
Indirect mutagen: 2-aminoanthracene, 2-AA (Sigma-Aldrich Inc.; Batch No.: STBB1901V)
Strains: histidine auxotrophic mutants of salmonella typhimurium TA97, TA98, TA100, TA1535, and TA102 (Institute of Laboratory Animal Science, Chinese Academy of Medical Sciences) are cryopreserved in liquid nitrogen.
Bacteria suspension cryopreserved in liquid nitrogen was quickly thawed in a 37° C. water bath. 100 μL bacteria suspension was withdrawn and seeded into 20 mL nutrient broth. After static culture in the dark at 37° C. for 16 h, the bacteria suspension was taken for mutagenicity assay.
The solution was filtered through a 0.22 μm filter membrane. 1.0 mL initial filtrate was discarded during filtrating. Then the filtrated test sample solution (15 mg/mL) was gradiently diluted with DMSO to solutions having the concentrations of 5, 1.5, 0.5 and 0.15 mg/mL.
The solution was filtered through a 0.22 μm filter membrane, 1.0 mL initial filtrate was discarded during filtrating. Then the filtrated test sample solution (15 mg/mL) was gradiently diluted with sterile water for injection to solutions having the concentrations of 5, 1.5, 0.5 and 0.15 mg/mL.
Dexon: an appropriate amount of Dexon was weighed and dissolved in sterile water for injection to obtain a solution with a concentration of 250 μg/mL. The solution was used after being filtered through 0.22 μm sterile filter membrane.
The solution was used after being filtered through 0.22 μm sterile filter membrane.
2-aminoanthracene: an appropriate amount of 2-aminoanthracene was weighed and dissolved in DMSO to obtain a solution with a concentration of 30 μg/mL. The solution was used after being filtered through 0.22 μm sterile filter membrane.
The Sprague-Dawley rat liver S9 fraction used in this assay was prepared on May 18, 2012 with Batch No.: 20120518. It was stored in liquid nitrogen and the protein concentration is 20.477 mg/mL, which can be used before May 17, 2014. Sterility test and biological activity detection met the requirements of the assay.
Before use, S9 mixture was formulated under sterile conditions. The formulated volume was determined by operator according to the requirements of the assay. Other solvents were formulated in accordance with the standard operating procedures of the Centre.
0.1 mL test article or control drug solution, 0.5 mL S9 mixture or PBS (pH7.4), and 2.0 mL top medium (containing about 0.05 mM histidine, about 0.05 mM biotin, about 0.6% agar, and about 0.5% NaCl) in sequence, and 0.1 mL bacteria culture solution finally were added into glass test tubes (10 mL). The mixture was rapidly mixed uniformly on a vortex mixer and poured into the surface of the bottom medium. The top medium was spread evenly over the surface of the basal medium by slight rotation.
The plates were placed on a horizontal table until the medium were solidified. Then the plates were inverted and cultured at 37° C. for 48 h (except for the TA102 strain, which was cultured for 72 h). The plates were withdrawn to count the number of visible revertant colonies per plate. The precipitation phenomenon of the test samples was observed when loading and at the end of culture. Three plates were tested for each group under activation and non-activation conditions, respectively.
If the results meet the following one or two criteria, it would be assessed as positive.
A further data set has as its target T1, EGFR (L858R/T790M) (Homo sapiens, UniProt P00533, L858R/T790M).
T1 construct: purchased Invitrogen Corporation PR8911A
Kind of data set: Inhibitory action on tyrosine kinase activity of mutant EGFR (L858R/T790M), Caliper. To be noted: kinase 10 nM, ATP 19 μM, polypeptide 3 μM, 60 min. The class given is biochemical. As to the method:
EGFR(L858R/T790M): Invitrogen Corporation, catalogue No. PR8911A
(§1) P22(polypeptide substrate): GL Biochem Ltd., catalogue No. 112393
(§2) 3.2 Formulation of Kinase Buffer: 50 mM HEPES, pH 7.5, 0.0015% Brij-35, 10 mM MgCl2, and 2 mM DTT(dithiothreitol).
(§3) 3.3 Formulation of Termination Solution: 100 mM HEPES, pH 7.5, 0.015% Brij-35, 0.2% Coating Reagent #3 (prepared by Caliper workstation), and 50 mM EDTA (ethylene diamine tetraacetic acid).
(§4) 3.4.1 Formulation of a 50-fold concentration of a compound: for example, if the final concentration of the compound for assay is 12.5 nM, 50-fold concentration is 625 nM. The 50-fold concentration of the compound working solution was subjected to a 4-fold dilution with DMSO in a 96-well plate to obtain seven diluted concentrations in total.
(§5) 3.4.2 Transferring the 5-fold concentration of compound to a reaction plate: 10 μl solution was transferred from each well of the above-mentioned 96-well plate to another 96-well plate, and then 90 μl kinase buffer was added. 5 μl solution was transferred from the above 96-well plate to a 384-well reaction plate. […]
(§6) 3.6 The substrate conversion rate data was read with Caliper. […]
(§7) Inhibition rate %=(max-conversion rate)/(max-min)x100%, wherein max refers to the conversion rate of the DMSO control, min refers to the conversion of enzyme-free control. IC50 values were determined by the inhibition curve.

The target of a further data set is T2, EGFR (L858R) (Homo sapiens, UniProt P00533, L858R).
T2 construct: purchased Invitrogen Corporation PR7447A
The data set is described as follows: Inhibitory action on tyrosine kinase activity of mutant EGFR (L858R), Caliper. The class given is biochemical. To be noted: kinase 9 nM, ATP 111 μM, polypeptide 3 μM, 60 min. The procedure:
EGFR(L858R): Invitrogen Corporation, catalogue No. PR7447A
as §1, §2, §3, §4, §5, §6, §7

For data set [2], the system named is human epidermoid carcinoma cell line A431. The data set is described as follows: In vitro inhibitory action on human tumor cells, A431 (MTT). The format is cell-based. The settings on record: MTT assay, usually 3 days, read-out: Inhibitory activity on human epidermoid cancer cell line A431 (IC50). As to the method: Human epidermoid carcinoma cell line A431, human non-small cell lung cancer cell line HCC827, head and neck cancer cell lines Fadu and human pancreatic cancer cell line AsPC-1 were purchased from Cell Bank, Chinese Academy of Sciences.
3.2 Cell culture method: cells were cultured in the complete medium at 37° C. under 5% CO2 and saturated humidity until logarithmic growth phase, i.e., adherent cells substantially approach complete confluence, and then collected for subsequent assay. For the adherent cells, they were firstly digested with trypsin/EDTA to detach.
3.3 A certain number of cells were seeded into 96-well cell culture plates (hereinafter referred to as 96-well plates). […] Finally, total cellular protein in the wells was determined using SRB assay, or cell viability was determined with MTT assay.
3.3.1 The cell seeding concentration was determined by cell growth curve assay which completely simulates compound inhibition assay process. […]
3.4 Dilution and addition of compounds: the concentration of DMSO that can be tolerant by the cells was determined by DMSO tolerance assay, and thereby selecting the dilution and addition methods of compounds. The effects of different concentrations of DMSO on cell growth were determined by DMSO tolerance assay. […] Two methods are finally determined as follows. […]

SMILES strings stand for the structures. Read-outs that look alike come from different tables or passages of the source.

Broadly, the IC50 is the concentration that inhibits the measured activity by half.

T2 sequence (P00533 25-1210 L858R): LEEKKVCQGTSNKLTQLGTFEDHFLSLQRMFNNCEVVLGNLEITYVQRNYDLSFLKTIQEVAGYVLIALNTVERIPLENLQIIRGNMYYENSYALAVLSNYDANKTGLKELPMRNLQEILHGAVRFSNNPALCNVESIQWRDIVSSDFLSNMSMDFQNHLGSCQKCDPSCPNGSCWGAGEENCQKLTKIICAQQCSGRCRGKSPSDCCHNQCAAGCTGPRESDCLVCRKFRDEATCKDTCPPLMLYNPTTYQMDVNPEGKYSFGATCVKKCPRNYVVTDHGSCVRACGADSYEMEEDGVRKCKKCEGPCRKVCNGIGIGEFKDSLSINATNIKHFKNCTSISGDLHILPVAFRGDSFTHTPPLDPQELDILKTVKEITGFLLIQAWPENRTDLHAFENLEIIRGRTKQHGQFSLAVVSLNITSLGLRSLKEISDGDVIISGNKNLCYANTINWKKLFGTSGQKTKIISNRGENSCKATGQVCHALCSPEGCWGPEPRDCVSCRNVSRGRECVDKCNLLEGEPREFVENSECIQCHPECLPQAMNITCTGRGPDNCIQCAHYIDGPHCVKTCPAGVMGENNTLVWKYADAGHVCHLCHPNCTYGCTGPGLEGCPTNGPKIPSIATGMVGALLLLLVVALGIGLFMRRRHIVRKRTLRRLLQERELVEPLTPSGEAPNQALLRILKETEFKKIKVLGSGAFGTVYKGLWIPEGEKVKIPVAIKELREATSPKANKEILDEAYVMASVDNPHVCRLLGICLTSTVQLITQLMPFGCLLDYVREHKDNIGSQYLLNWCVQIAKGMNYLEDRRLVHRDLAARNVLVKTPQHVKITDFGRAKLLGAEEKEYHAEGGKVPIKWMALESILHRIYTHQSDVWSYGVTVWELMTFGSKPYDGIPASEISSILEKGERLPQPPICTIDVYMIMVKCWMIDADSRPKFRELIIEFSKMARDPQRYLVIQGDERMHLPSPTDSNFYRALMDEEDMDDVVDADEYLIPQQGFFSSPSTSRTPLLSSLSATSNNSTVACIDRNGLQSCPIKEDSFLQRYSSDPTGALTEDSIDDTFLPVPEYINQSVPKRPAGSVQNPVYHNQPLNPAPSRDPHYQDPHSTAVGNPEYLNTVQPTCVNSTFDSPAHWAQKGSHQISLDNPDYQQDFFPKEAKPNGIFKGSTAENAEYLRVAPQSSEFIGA
T1 sequence (P00533 25-1210 T790M/L858R): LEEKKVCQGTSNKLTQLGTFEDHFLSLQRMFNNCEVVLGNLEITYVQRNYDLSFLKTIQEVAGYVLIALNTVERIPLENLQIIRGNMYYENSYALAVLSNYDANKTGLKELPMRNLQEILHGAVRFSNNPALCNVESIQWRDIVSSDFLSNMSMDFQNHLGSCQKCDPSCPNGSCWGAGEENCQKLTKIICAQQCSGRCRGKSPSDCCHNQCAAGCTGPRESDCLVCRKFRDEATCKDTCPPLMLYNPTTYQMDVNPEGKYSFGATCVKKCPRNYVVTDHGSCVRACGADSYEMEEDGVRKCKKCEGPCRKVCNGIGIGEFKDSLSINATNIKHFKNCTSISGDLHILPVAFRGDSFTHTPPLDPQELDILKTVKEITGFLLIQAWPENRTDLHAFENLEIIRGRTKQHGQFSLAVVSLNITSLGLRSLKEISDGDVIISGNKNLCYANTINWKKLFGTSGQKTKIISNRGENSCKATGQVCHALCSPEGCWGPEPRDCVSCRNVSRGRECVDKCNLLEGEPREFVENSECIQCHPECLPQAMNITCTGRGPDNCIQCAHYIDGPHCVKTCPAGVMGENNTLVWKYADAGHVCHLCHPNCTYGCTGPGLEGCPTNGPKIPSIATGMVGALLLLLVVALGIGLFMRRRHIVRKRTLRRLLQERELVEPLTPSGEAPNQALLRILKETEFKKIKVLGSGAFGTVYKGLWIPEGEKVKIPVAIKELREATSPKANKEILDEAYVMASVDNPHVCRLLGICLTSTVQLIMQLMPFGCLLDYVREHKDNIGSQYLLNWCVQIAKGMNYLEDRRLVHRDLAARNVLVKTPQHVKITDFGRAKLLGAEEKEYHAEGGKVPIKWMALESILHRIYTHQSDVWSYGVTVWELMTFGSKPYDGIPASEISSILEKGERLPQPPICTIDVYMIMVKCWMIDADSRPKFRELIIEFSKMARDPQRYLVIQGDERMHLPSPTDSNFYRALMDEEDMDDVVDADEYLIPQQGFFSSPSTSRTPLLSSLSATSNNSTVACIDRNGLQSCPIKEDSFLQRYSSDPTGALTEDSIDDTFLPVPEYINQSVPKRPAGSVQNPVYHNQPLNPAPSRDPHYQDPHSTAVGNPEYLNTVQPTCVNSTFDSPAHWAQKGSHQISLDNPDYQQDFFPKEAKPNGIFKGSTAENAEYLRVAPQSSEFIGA

For the molecule `COCCOc1cc2ncnc(Nc3ccc(F)c(Cl)c3)c2cc1NC(=O)C=C1CCN(CCOC)CC1` [Compound 1, N-[4-(3-chloro-4-fluorophenylamino)-7-(2-methoxyethoxy)quinazolin-6-yl]-2-[1-(2-methoxyethyl)piperidin-4-ylidene]acetamide], the “mutagenicity on TA102 strain” value in data set [1] was “no mutagenicity”. Moreover, in data set [1], the “mutagenicity on TA97 strain” value is “no mutagenicity”. The “mutagenicity on TA98, TA100 and TA1535 strains” value in data set [1] is on record as “no mutagenicity”. In addition, the half-maximal inhibitory concentration (IC50) stood at 266 nM on EGFR (L858R/T790M); 0.4 nM at EGFR (L858R); 125 nM in data set [2] (Homo sapiens, A-431, 72 h).

Take `COCCOc1cc2ncnc(Nc3ccc(F)c(Cl)c3)c2cc1NC(=O)C=C1CCN(CCOC)CC1.CS(=O)(=O)O` [Compound 3, N-[4-(3-chloro-4-fluorophenylamino)-7-(2-methoxyethoxy)quinazolin-6-yl]-2-[1-(2-methoxyethyl)piperidin-4-ylidene]acetamide dimethylsulfonate]: in data set [1], the “mutagenicity on TA102 strain” value is given as “no mutagenicity”; the “mutagenicity on TA97 strain” value is recorded as “no mutagenicity”; the “mutagenicity on TA98, TA100 and TA1535 strains” value was “no mutagenicity”. The IC50 against EGFR (L858R/T790M) worked out at 235 nM. At EGFR (L858R), this molecule had an IC50 of 0.45 nM. For the same molecule, the half-inhibitory concentration (IC50) in data set [2] was determined as 138 nM.
